These results are taken from publication PMC11790958, “Molecular mechanism of condensin I activation by KIF4A” (The EMBO Journal, 2024).

Residues, ends and D or L forms follow the SMILES beside them. No end group written: not given here. *: point of attachment. 5FAM = O=C1OC2(c3ccc(O)cc3Oc3cc(O)ccc32)c2ccc(C(=O)*)cc21; 5‑FAM = 5-carboxyfluorescein label

One assay relates to CI NdelH, D2delC. The experiment in a line: Fluorescence polarisation competition assay, 5-FAM NCAPH peptide and CI NdelH, D2delC. The class given is binding, human. The following applies: 100 nM 5-FAM-NCAPH55-77 with 4 μM CID2ΔC,NΔH. The method, then: FP competition assays were performed for NCAPD2 peptide, using a fixed concentration of 100 nM of F-NCAPD2-C1376-1398 and 6 μM of NCAPG, in the presence or absence of 10 μM KIF4A WT1206-1228 or KIF4A Mut1206-1228 peptide. Similar assays were performed for NCAPH2 peptide, using a fixed concentration of 100 nM of F-N-NCAPH55-77 and 4 μM CI NdelH, D2delC, in the presence or absence of 100 μM of KIF4A WT1206-1228 or KIF4A Mut1206-1228 peptide.
(§1) Background was determined by measuring 100 nM of F-NCAPD2-C1376-1398 or F-N-NCAPH55-77 in the presence of peptide buffer (20 mM HEPES pH 8), KIF4A WT1206-1228 or KIF4A Mut1206-1228 peptide, and subtracted from each measurement. Assay was performed with three technical repeats, setting up a new plate with distinct protein aliquot each time, reading the plate three times to ensure equilibrium. Data analysed and plotted using GraphPad Prism.

Assay [1] deals with T1, NCAPG (Homo sapiens, UniProt Q9BPX3).
T1 construct: ystrep (Strep tag); made in house; host or cells: Sf9 insect cells (baculovirus)
The experiment in a line: Fluorescence polarisation binding assay of 5-FAM peptides with NCAPG. The following applies: FP, 100 nM 5-FAM peptide; Kd not fit. The method, then: (§2) Fluorescence polarisation binding assays were performed by mixing 100 nM of 5-FAM labelled peptide (Reagents and Tools Table) with indicated concentration of protein in FP buffer (20 mM HEPES pH 8, 150 mM KCl, 2.5 mM MgCl, 5% glycerol, 1 mM DTT) and incubated at room temperature for 15 min before reading the plate with a POLARstar Omega plate reader (BMG). The plate was read three times at 5 min intervals to ensure samples reached equilibrium and three technical replicates were performed, setting up a new plate, with distinct protein aliquot in each case. Data was analysed and plotted in Graphpad Prism and Kd fit using the following: FP=FPmax/2[Pep]([C]+[Pep]+Kd)−([C]+[Pep]+Kd)^2−4.[C].[Pep] Where [C] and [Pep] are the concentration, in μM, of condensin and 5-FAM labelled peptide respectively, FPmax the maximum change in fluorescence polarisation in mP and Kd is the equilibrium dissociation constant. Fit curves are plotted, with standard deviation.

The target of assay [2] is T2, CID2ΔC (condensin I lacking NCAPD2 C-terminal region) (Homo sapiens, UniProt Q9BPX3).
T2 construct: made in house; host or cells: Sf9 insect cells (baculovirus)
In words: Fluorescence polarisation binding assay of 5-FAM peptides with CID2ΔC. The note with it: FP, 100 nM 5-FAM peptide titrated with CID2ΔC, three technical replicates, ± standard error. The method, then: as §2

The next assay has as its system condensin I. The experiment in a line: ATPase activity assay (EnzCheck phosphate assay), basal. The class given is biochemical, human. The method, then:
ATPase assays were performed based on the method described previously (Voulgaris and Gligoris, [2019]) using the EnzCheck phosphate assay kit (Invitrogen). Condensin I complexes were used at a final concentration of 50 nM, while HAWK subunits were used at 100 nM and peptides were used at 50 μM. Basal ATPase assays were performed with final salt concentration of 100 mM KCl. DNA titrations were performed with 50 bp dsDNA annealed by heating to 98 degrees and slowly cooling in annealing buffer (10 mM Tris pH 7.5, 50 mM NaCl, 1 mM EDTA).
Plate was read with a POLARstar Omega plate reader (BMG).

In assay [3] the target is T1, NCAPG. The experiment in a line: Fluorescence polarisation competition assay, 5-FAM NCAPD2 peptide and NCAPG. The class given is binding. The note with it: 100 nM 5-FAM-NCAPD2_1376-1398, 10 μM competing peptide, mean ± SD. The method, then: […] Similar assays were performed for NCAPH2 peptide, using a fixed concentration of 100 nM of F-N-NCAPH55-77 and 4 μM CI NdelH, D2delC, in the presence or absence of 100 μM of KIF4A WT1206-1228 or KIF4A Mut1206-1228 peptide.
as §1
Background: Polarisation of emitted light reports the rotation of a fluorescent probe.

With “5-FAM-FPQNDDEKERLQRRRSRVFDLQF ({5‑FAM}-FPQNDDEKERLQRRRSRVFDLQF) [5-FAM-NCAPH55–77, 5-FAM labelled peptide of NCAPH residues 55-77]”, the “FP signal without competitor” value in the assay with CI NdelH, D2delC is given as 37 ± 7 mP; with CI NdelH, D2delC (listed as NCAPH peptide), ~ 35 mP. In addition, the “binding to NCAPG” value with NCAPG [1] is “low affinity”.

As for `CC[C@H](C)[C@H](NC(=O)[C@@H]1CCCN1C(=O)[C@H](CO)NC(=O)[C@H](CS)NC(=O)CNC(=O)[C@H](CO)NC(=O)[C@H](Cc1ccccc1)NC(=O)[C@H](Cc1ccccc1)NC(=O)[C@H](CO)NC(=O)[C@@H](NC(=O)[C@H](CC(N)=O)NC(=O)[C@H](CO)NC(=O)[C@H](C)NC(=O)[C@H](CC(C)C)NC(=O)[C@H](C)NC(=O)[C@H](CCCNC(=N)N)NC(=O)[C@H](CCCCN)NC(=O)[C@H](CCCCN)NC(=O)[C@H](CCCCN)NC(=O)[C@H](CCCCN)NC(=O)CNC(=O)[C@@H]1CCCN1C(=O)c1ccc2c(c1)C(=O)OC21c2ccc(O)cc2Oc2cc(O)ccc21)[C@@H](C)O)C(=O)N[C@@H](CCC(=O)O)C(=O)O` [5-FAM-KIF4A1206–1228] (5FAM-PGKKKKRALASNTSFFSGCSPIE-OH), the Kd (as a rule, the free concentration of one partner at which half of the binding sites on the other are occupied at equilibrium, for simple one-to-one binding) in assay [2] was 2800 ± 200 nM.

For the molecule “KIF4Amut peptide (PGKKAAAAGAAATSFFSGCSPIE)”, the Fit rates in the assay with condensin I (CI D2delC + peptide, replicate 1) was 10.29 ATPase per molecule, per minute; in the assay with condensin I (CI D2delC + peptide, replicate 2), 11.11 ATPase per molecule, per minute; with condensin I (CI D2delC + peptide, replicate 3) it was 10.2 ATPase per molecule, per minute; in the assay with condensin I (CI D2delC + peptide, replicate 4) it was 15.62 ATPase per molecule, per minute; with condensin I (CI D2delC + peptide, replicate 5) it was 27.72 ATPase per molecule, per minute; in the assay with condensin I (CI NdelH + peptide, replicate 1), 29.41 ATPase per molecule, per minute. For the same molecule, the Fit rates with condensin I (CI NdelH + peptide, replicate 2) is reported as 35.68 ATPase per molecule, per minute; in the assay with condensin I (CI NdelH + peptide, replicate 3), 31.03 ATPase per molecule, per minute; in the assay with condensin I (CI NdelH D2delC + peptide, replicate 1), 28.18 ATPase per molecule, per minute; in the assay on condensin I (CI NdelH D2delC + peptide, replicate 2), 29.84 ATPase per molecule, per minute; in the assay on condensin I (CI NdelH D2delC + peptide, replicate 3) it was 39.65 ATPase per molecule, per minute; in the assay with condensin I (CIWT + peptide, replicate 1), 10.26 ATPase per molecule, per minute. For the same molecule, the Fit rates is reported as 7.215 ATPase per molecule, per minute with condensin I (CIWT + peptide, replicate 2); 8.551 ATPase per molecule, per minute with condensin I (CIWT + peptide, replicate 3); 10.06 ATPase per molecule, per minute with condensin I (CIWT + peptide, replicate 4); 14.77 ATPase per molecule, per minute in the assay on condensin I (CIWT + peptide, replicate 5); 10.26 ATPase per molecule, per minute in the assay on condensin I (CIWT + peptide, replicate 6).

Regarding PGKKAAAAGAAATSFFSGCSPIE [KIF4A mut], in the assay on condensin I (50 nM CI, 50 μM peptide, 3 repeats), the “effect of peptide on ATPase activity of CI” value is listed as “no increase in activity”. Further, the “FP signal on addition of competing peptide” value at NCAPG [3] was “not significantly changed”.
